Measurements from paper PMC10284550, “Accelerating drug target inhibitor discovery with a deep generative foundation model” (Science Advances, 2023).
“Also recorded” adds a separate entry of the source.

Target: SARS-CoV-2 spike glycoprotein ectodomain (Severe acute respiratory syndrome coronavirus 2, UniProt P0DTC2, K986P/R682G/R683S/R685S/V987P)
Format: binding
Conditions: pH 7.5

C#CCN1CCC(CCNc2ccnc3ccccc23)CC1 [GEN727]
Effect on stability of the spike (thermofluor): appeared to reduce the speed of the transition of the spike to a less stable form; also recorded: somewhat destabilized the spike
